# From patent US8470845B2, “Analgesic and methods of treating pain” (Toray Industries, Inc., priority 2004, dated 2013)
# Structures can show the parent of a compound that is named as a salt.
# Tested on: male ddY mouse
# Test: Analgesic activity test by mouse acetic acid writhing method
# Type: in vivo
# Settings: Mus musculus, subcutaneous, 15 minutes before i.p. 0.6% acetic acid; dosage to halve the number of writhing response; read-out: ED50
# Experimental: To each male ddY mouse, each test compound or the vehicle was subcutaneously administered in an administration volume of 0.1 mL/10 g body weight. Fifteen minutes later, 0.1 mL/10 g body weight of aqueous 0.6% (v/v) acetic acid solution was intraperitoneally administered. From 10 minutes after the administration of the acetic acid solution, the number of writhing response (i.e., the behavior to bend the body backward and/or twist the body) during 10 minutes was counted, and the analgesic activity was evaluated based on the number of writhing response. […] 10% Aqueous dimethylsulfoxide (DMSO) was used as a vehicle for test compounds 1, 2, 3, 4, 5, 6, 7, 8, 9, 10, 11, 12, 13, 14, 15, 16, 17, 18, 19, 20, 21 and 22. 0.1% Citric acid/aqueous 5% xylitol was used as a vehicle for test compounds 10f.
row,Structure (SMILES),ED50 [mg/kg]
1,"O=C1C(Cc2ccccc2)CCN1[C@H]1CC[C@@]2(O)[C@H]3Cc4ccc(O)c5c4[C@@]2(CCN3CC2CC2)[C@H]1O5 (mixture of isomers) [Compound 4, 1-(17-cyclopropylmethyl-4,5α-epoxy-3,14-dihydroxymorphinan-6α-yl)-3-benzyl-pyrrolidine-2-one (diastereomer mixture).tartaric acid salt]",0.26
2,"Cl.O=C1CCCN1[C@@H]1CC[C@@]2(O)[C@H]3Cc4ccc(O)c5c4[C@@]2(CCN3CC2CC2)[C@H]1O5 [Compound 1, 1-(17-cyclopropylmethyl-4,5α-epoxy-3,14-dihydroxy-morphinan-6β-yl)pyrrolidine-2-one-hydrochloric acid salt]",2.62
3,"Cl.O=C1CCCN1[C@H]1CC[C@@]2(O)[C@H]3Cc4ccc(O)c5c4[C@@]2(CCN3CC2CC2)[C@H]1O5 [Compound 2, 1-(17-cyclopropylmethyl-4,5α-epoxy-3,14-dihydroxy-morphinan-6α-yl)pyrrolidine-2-one-hydrochloric acid salt]",0.95
4,"O=C1C(Cc2ccccc2)CCN1[C@@H]1CC[C@@]2(O)[C@H]3Cc4ccc(O)c5c4[C@@]2(CCN3CC2CC2)[C@H]1O5 (stereo partly drawn) [Compound 3, 1-(17-cyclopropylmethyl-4,5α-epoxy-3,14-dihydroxy-morphinan-6β-yl)-3-benzyl-pyrrolidine-2-one.tartaric acid salt]",0.28
5,"O=C1c2ccccc2CN1[C@@H]1CC[C@@]2(O)[C@H]3Cc4ccc(O)c5c4[C@@]2(CCN3CC2CC2)[C@H]1O5 [Compound 5, 2-(17-cyclopropylmethyl-4,5α-epoxy-3,14-dihydroxy-morphinan-6β-yl)-2,3-dihydroisoindol-1-one.tartaric acid salt]",0.071
6,"CCC/C=C1\CC(=O)N([C@@H]2CC[C@@]3(O)[C@H]4Cc5ccc(O)c6c5[C@@]3(CCN4CC3CC3)[C@H]2O6)C1=O [Compound 6, N-(17-cyclopropylmethyl-4,5α-epoxy-3,14-dihydroxy-morphinan-6β-yl)-2-butylidene succinic imide.tartaric acid salt]",0.48
7,"C=CCN1CC[C@]23c4c5ccc(O)c4O[C@H]2[C@H](N2C(=O)c4ccc(F)cc4C2=O)CC[C@@]3(O)[C@H]1C5 [Compound 7, N-(17-allyl-4,5α-epoxy-3,14-dihydroxymorphinan-6β-yl)-4-fluorophthalimide.tartaric acid salt]",0.033
8,"C=CCN1CC[C@]23c4c5ccc(O)c4O[C@H]2[C@@H](N2C(=O)c4cccc(F)c4C2=O)CC[C@@]3(O)[C@H]1C5 [Compound 8, N-(17-allyl-4,5α-epoxy-3,14-dihydroxy-morphinan-6α-yl)-3-fluorophthal-imide.tartaric acid salt]",0.03
9,"C=CCN1CC[C@]23c4c5ccc(O)c4O[C@H]2[C@@H](N2C(=O)c4ccccc4C2=O)CC[C@@]3(O)[C@H]1C5 [Compound 9, N-(17-allyl-4,5α-epoxy-3,14-dihydroxymorphinan-6α-yl)-phthalimide.tartaric acid salt]",0.14
10,"O=C1c2ccccc2C(=O)N1[C@@H]1CC[C@@]2(O)[C@H]3Cc4ccc(O)c5c4[C@@]2(CCN3CC2CC2)[C@H]1O5 [Compound 10, N-(17-cyclopropylmethyl-4,5α-epoxy-3,14-dihydroxymorphinan-6β-yl)-phthalimide.hydrochloric acid salt]",0.031
11,"Cc1ccc2c(c1)C(=O)N([C@@H]1CC[C@@]3(O)[C@H]4Cc5ccc(O)c6c5[C@@]3(CCN4CC3CC3)[C@H]1O6)C2=O [Compound 11, N-(17-cyclopropylmethyl-4,5α-epoxy-3,14-dihydroxy-morphinan-6β-yl)-4-methylphthalimide.hydrochloric acid salt]",0.045
12,"O=C1c2ccc(Cl)cc2C(=O)N1[C@@H]1CC[C@@]2(O)[C@H]3Cc4ccc(O)c5c4[C@@]2(CCN3CC2CC2)[C@H]1O5 [Compound 12, N-(17-cyclopropylmethyl-4,5α-epoxy-3,14-dihydroxy-morphinan-6β-yl)-4-chlorophthalimide.tartaric acid salt]",0.29
13,"O=C1c2ccc(F)cc2C(=O)N1[C@@H]1CC[C@@]2(O)[C@H]3Cc4ccc(O)c5c4[C@@]2(CCN3CC2CC2)[C@H]1O5 [Compound 13, N-(17-cyclopropylmethyl-4,5α-epoxy-3,14-dihydroxy-morphinan-6β-yl)-4-fluorophthalimide.tartaric acid salt]",0.037
14,"O=C1c2cccc(F)c2C(=O)N1[C@@H]1CC[C@@]2(O)[C@H]3Cc4ccc(O)c5c4[C@@]2(CCN3CC2CC2)[C@H]1O5 [Compound 14, N-(17-cyclopropylmethyl-4,5α-epoxy-3,14-dihydroxy-morphinan-6β-yl)-3-fluorophthalimide.tartaric acid salt]",0.034
15,"Cc1cccc2c1C(=O)N([C@@H]1CC[C@@]3(O)[C@H]4Cc5ccc(O)c6c5[C@@]3(CCN4CC3CC3)[C@H]1O6)C2=O [Compound 15, N-(17-cyclopropylmethyl-4,5α-epoxy-3,14-dihydroxy-morphinan-6β-yl)-3-methylphthalimide.tartaric acid salt]",0.03
16,"O=C1c2cc3ccccc3cc2C(=O)N1[C@@H]1CC[C@@]2(O)[C@H]3Cc4ccc(O)c5c4[C@@]2(CCN3CC2CC2)[C@H]1O5 [Compound 16, N-(17-cyclopropylmethyl-4,5α-epoxy-3,14-dihydroxy-morphinan-6β-yl)naphthalenedicarboxylic imide.hydrochloric acid salt]",0.31
17,"O=C1c2cc(Cl)c(Cl)cc2C(=O)N1[C@@H]1CC[C@@]2(O)[C@H]3Cc4ccc(O)c5c4[C@@]2(CCN3CC2CC2)[C@H]1O5 [Compound 17, N-[17-(cyclopropylmethyl)-4,5α-epoxy-3,14-dihydroxymorphinan-6β-yl]]-4,5-dichlorophthalimide.tartaric acid salt]",0.27
18,"O=C1CCC(=O)N1[C@@H]1CC[C@@]2(O)[C@H]3Cc4ccc(O)c5c4[C@@]2(CCN3CC2CC2)[C@H]1O5 [Compound 21, N-(17-cyclopropylmethyl-4,5α-epoxy-3,14-dihydroxy-morphinan-6β-yl)-succinic imide.tartaric acid salt]",3.37
19,"O=C1C=CC(=O)N1[C@@H]1CC[C@@]2(O)[C@H]3Cc4ccc(O)c5c4[C@@]2(CCN3CC2CC2)[C@H]1O5 [Compound 22, N-(17-cyclopropylmethyl-4,5α-epoxy-3,14-dihydroxy-morphinan-6β-yl)-maleic imide.tartaric acid salt]",2.18

# Same assay, conditions: subcutaneous, 15 minutes before i.p. 0.6% acetic acid; dosage to halve the number of writhing response
row,Structure (SMILES),ED50 [mg/kg]
1,"O=C(O)C(O)C(O)C(=O)O.O=C1c2ccccc2C(=O)N1[C@@H]1CC[C@@]2(O)[C@H]3Cc4ccc(O)c5c4[C@@]2(CCN3CC2CC2)[C@H]1O5 [Compound 18, N-(17-cyclopropylmethyl-4,5α-epoxy-3,14-dihydroxy-morphinan-6β-yl)-phthalimide.tartaric acid salt]",0.019
2,"O=C(O)C(O)C(O)C(=O)O.O=C1C2=C(CCCC2)C(=O)N1[C@@H]1CC[C@@]2(O)[C@H]3Cc4ccc(O)c5c4[C@@]2(CCN3CC2CC2)[C@H]1O5 [Compound 19, N-(17-cyclopropylmethyl-4,5α-epoxy-3,14-dihydroxy-morphinan-6β-yl)-3,4,5,6-tetrahydrophthalimide.tartaric acid salt]",0.032
3,"O=C(O)C(O)C(O)C(=O)O.Oc1ccc2c3c1O[C@H]1[C@H](N4CCCC4)CC[C@@]4(O)[C@@H](C2)N(CC2CC2)CC[C@]314 [Compound 20, 17-cyclopropylmethyl-4,5α-epoxy-6β-(pyrrolidine-1-yl)-morphinan-3,14-diol.tartaric acid salt, reference compound]",>10
